The record followed here is ChEMBL document CHEMBL3286221, “Design and synthesis of novel 1,2,3-triazole derivatives of coronopilin as anti-cancer compounds” (Eur J Med Chem, 2014).

For orientation: IC50 means the concentration at which inhibition is half-maximal. A word on the inhibition: it is the change of the read-out against control, counted positive when it falls.

Molecules are shown by their SMILES.

One experiment has as its system HeLa. In words: Cytotoxicity against human HeLa cells after 48 hrs by sulforhodamine B assay. The experiment is classed as functional, cell-based. Background: In SRB staining, fixed cells bind dye roughly in proportion to their protein.
Experiment [1] deals with PC-3. The experiment in a line: Cell cycle arrest in human PC3 cells assessed as accumulation at G0/G1 phase at 5 uM after 24 hrs by propidium iodide staining-based flow cytometric analysis (reference value: 68.2%). In kind it is functional. Background: Flow cytometry measures light scatter and fluorescence of single cells or particles in a stream.
For experiment [2], the system named is PC-3. The experiment in a line: Cell cycle arrest in human PC3 cells assessed as accumulation at S phase at 5 uM after 24 hrs by propidium iodide staining-based flow cytometric analysis (reference value: 8.5%). In kind it is functional.
A further experiment has as its system A549. The experiment in a line: Cytotoxicity against human A549 cells after 48 hrs by sulforhodamine B assay. The experiment is classed as functional, cell-based. To be noted: A549, 48 h.
For experiment [3], the target named is Transcription factor p65 (Homo sapiens) (UniProt Q04206). The experiment in a line: Inhibition of NFkappaB p65 binding to consensus DNA sequence in human PC3 cells after 24 hrs by ELISA. In kind it is cell-based. As to conditions: PC-3. On the technique in general: ELISA stands for enzyme-linked immunosorbent assay.
The subject of experiment [4] is PC-3. The experiment in a line: Cell cycle arrest in human PC3 cells assessed as accumulation at sub-G1 phase at 1 uM after 24 hrs by propidium iodide staining-based flow cytometric analysis (reference value: 13.1%). The experiment is classed as functional.
The test system of experiment [5] is PC-3. The experiment in a line: Cell cycle arrest in human PC3 cells assessed as accumulation at G0/G1 phase at 10 uM after 24 hrs by propidium iodide staining-based flow cytometric analysis (reference value: 68.2%). The experiment is classed as functional.
The test system of experiment [6] is PC-3. In words: Cell cycle arrest in human PC3 cells assessed as accumulation at S phase at 10 uM after 24 hrs by propidium iodide staining-based flow cytometric analysis (reference value: 8.5%). In kind it is functional.
Experiment [7] concerns the target Transcription factor p65 (Homo sapiens) (UniProt Q04206). The experiment in a line: Inhibition of NFkappaB p65 binding to consensus DNA sequence in human PC3 cells at 100 uM after 24 hrs by ELISA relative to control. The experiment is classed as cell-based. To be noted: PC-3.
Experiment [8] has as its system PC-3. In words: Cell cycle arrest in human PC3 cells assessed as accumulation at M phase at 1 uM after 24 hrs by propidium iodide staining-based flow cytometric analysis (reference value: 3%). The experiment is classed as functional.
The test system of experiment [9] is PC-3. The experiment in a line: Cell cycle arrest in human PC3 cells assessed as accumulation at sub-G1 phase after 24 hrs by propidium iodide staining-based flow cytometric analysis. In kind it is functional.
The test system of experiment [10] is PC-3. In words: Cell cycle arrest in human PC3 cells assessed as accumulation at G0/G1 phase at 1 uM after 24 hrs by propidium iodide staining-based flow cytometric analysis (reference value: 68.2%). In kind it is functional.
In a further experiment the test system is THP-1. In words: Cytotoxicity against human THP1 cells after 48 hrs by sulforhodamine B assay. As to conditions: THP-1, 48 h. In kind it is functional, cell-based.
Experiment [11] concerns PC-3. The experiment in a line: Cytotoxicity against human PC3 cells after 48 hrs by sulforhodamine B assay. In kind it is functional, cell-based. To be noted: PC-3, 48 h.
Experiment [12] deals with PC-3. The experiment in a line: Cell cycle arrest in human PC3 cells assessed as accumulation at M phase at 10 uM after 24 hrs by propidium iodide staining-based flow cytometric analysis (reference value: 3%). In kind it is functional.
Experiment [13] relates to PC-3. In words: Cell cycle arrest in human PC3 cells assessed as accumulation at sub-G1 phase at 5 uM after 24 hrs by propidium iodide staining-based flow cytometric analysis (reference value: 13.1%). In kind it is functional.
In experiment [14] the target is Transcription factor p65 (Homo sapiens) (UniProt Q04206). In words: Inhibition of NFkappaB p65 binding to consensus DNA sequence in human PC3 cells after 24 hrs by Western blotting analysis. As to conditions: PC-3. The experiment is classed as cell-based.
Experiment [15] has as its system PC-3. In words: Cell cycle arrest in human PC3 cells assessed as accumulation at M phase at 5 uM after 24 hrs by propidium iodide staining-based flow cytometric analysis (reference value: 3%). The experiment is classed as functional.
In experiment [16] the test system is PC-3. The experiment in a line: Cell cycle arrest in human PC3 cells assessed as accumulation at S phase at 1 uM after 24 hrs by propidium iodide staining-based flow cytometric analysis (reference value: 8.5%). In kind it is functional.
The next experiment relates to MCF7. In words: Cytotoxicity against human MCF7 cells after 48 hrs by sulforhodamine B assay. In kind it is functional, cell-based. To be noted: MCF7, 48 h.
Experiment [17] deals with PC-3. The experiment in a line: Cell cycle arrest in human PC3 cells assessed as accumulation at sub-G1 phase at 10 uM after 24 hrs by propidium iodide staining-based flow cytometric analysis (reference value: 13.1%). The experiment is classed as functional.
The target of experiment [18] is Transcription factor p65 (Homo sapiens) (UniProt Q04206). In words: Inhibition of NFkappaB p65 binding to consensus DNA sequence in human PC3 cells at 100 uM after 24 hrs by Western blotting analysis relative to control. As to conditions: PC-3. In kind it is cell-based.
The nature of experiment [19]: Cytotoxicity against human HCT15 cells after 48 hrs by sulforhodamine B assay. The experiment is classed as functional, cell-based. To be noted: HCT-15, 48 h.

Transcription factor p65 (Homo sapiens), sequence (Q04206 whole entry): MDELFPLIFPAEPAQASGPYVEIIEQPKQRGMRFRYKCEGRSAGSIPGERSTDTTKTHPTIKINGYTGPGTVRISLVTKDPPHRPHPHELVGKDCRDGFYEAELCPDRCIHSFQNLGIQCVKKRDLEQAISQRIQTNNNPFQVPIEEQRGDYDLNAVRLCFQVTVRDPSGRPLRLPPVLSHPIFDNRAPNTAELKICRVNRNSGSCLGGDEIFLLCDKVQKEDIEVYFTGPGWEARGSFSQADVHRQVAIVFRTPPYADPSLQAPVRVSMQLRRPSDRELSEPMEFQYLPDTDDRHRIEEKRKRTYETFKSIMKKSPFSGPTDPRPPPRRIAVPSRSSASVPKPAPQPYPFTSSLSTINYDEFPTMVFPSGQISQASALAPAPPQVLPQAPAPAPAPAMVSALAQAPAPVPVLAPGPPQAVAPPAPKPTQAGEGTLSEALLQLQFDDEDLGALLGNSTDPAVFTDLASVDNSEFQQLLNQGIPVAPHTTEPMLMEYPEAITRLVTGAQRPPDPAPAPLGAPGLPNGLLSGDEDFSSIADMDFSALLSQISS

As to `C=C1C(=O)O[C@@H]2[C@H]1CC[C@H](C)[C@]1(O)[C@@H](n3cc(COc4ccccc4Cl)nn3)CC(=O)[C@@]21C`, the half-inhibitory concentration (IC50) with HeLa came out at 3.6 µM; with A549, 4.2 µM; in the experiment with THP-1, 3.8 µM; in the experiment on PC-3 [11], 3.1 µM; in the experiment with MCF7 it was 9.7 µM; in experiment [19], 5.3 µM. Further, the Activity turned out to be 51.2% in the experiment with PC-3 [1]; 3.5% in the experiment on PC-3 [2]; 38.8% with PC-3 [4]; 50.7% with PC-3 [5]; 3% with PC-3 [6]; 1% in the experiment with PC-3 [8]. Also, the Activity result in the experiment on PC-3 [9] was “Dose-dependent effect”; with PC-3 [10], 52.3%; in the experiment on PC-3 [12], 1%; with PC-3 [13], 39.9%; in the experiment with PC-3 [15], 1.9%; in the experiment on PC-3 [16], 4.2%. In addition, in the experiment on PC-3 [17], the Activity was 49.2%. Moreover, the inhibition entry in [3] was “Dose-dependent effect”; in experiment [7], 80%; in experiment [14], “Dose-dependent effect”; in [18], 80%.
